Laboratory results taken from patent US20240190880A1 (THE REGENTS OF THE UNIVERSITY OF MICHIGAN, priority 2021, published 2024).
Like-named read-outs stand apart in the source and are kept apart here.

Biological target: T1, ER (Homo sapiens, UniProt P03372)
T1 construct: host or cells: T47D and MCF7 human breast cancer cells
T1 sequence (P03372 1-595): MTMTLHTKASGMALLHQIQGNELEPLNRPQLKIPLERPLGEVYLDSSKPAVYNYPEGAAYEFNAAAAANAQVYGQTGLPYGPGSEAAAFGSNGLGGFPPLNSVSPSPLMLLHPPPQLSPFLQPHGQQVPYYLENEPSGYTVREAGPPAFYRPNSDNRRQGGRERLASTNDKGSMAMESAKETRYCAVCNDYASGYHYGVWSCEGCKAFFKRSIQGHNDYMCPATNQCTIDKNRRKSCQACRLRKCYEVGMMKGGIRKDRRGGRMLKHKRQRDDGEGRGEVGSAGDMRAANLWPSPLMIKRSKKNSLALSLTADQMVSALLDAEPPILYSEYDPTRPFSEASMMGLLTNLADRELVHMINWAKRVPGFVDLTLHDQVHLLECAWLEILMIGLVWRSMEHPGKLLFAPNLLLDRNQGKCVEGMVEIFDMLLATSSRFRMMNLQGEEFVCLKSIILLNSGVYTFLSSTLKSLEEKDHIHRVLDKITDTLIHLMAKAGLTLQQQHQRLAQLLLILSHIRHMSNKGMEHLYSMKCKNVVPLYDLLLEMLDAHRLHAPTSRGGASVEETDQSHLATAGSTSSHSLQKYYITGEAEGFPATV
Experiment: ER degradation activity, in-cell western blot analysis in T47D cells
Format: cell-based
Method in brief: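 ER protein remaining after 16 h compound exposure is quantified in T47D cells by in-cell western, with a no-primary-antibody background control. Values are percentages of DMSO-treated signal.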

[1] = 16 hours, Table A does not say which cell line (T47D or MCF7), read-out: Potency (DC50)
[2] = compounds 16 hours, Table A does not say whether T47D or MCF7, read-out: Potency (DC50)

Row | SMILES | DC50 [1] [µM] | DC50 [2] [µM]
1 | C[C@@H]1Cc2c([nH]c3ccccc23)[C@@H](c2c(F)cc(N3CC4(CN(CC(=O)N5Cc6cc7c(cc6C5)C(=O)N(C5CCC(=O)NC5=O)C7)C4)C3)cc2F)N1CC(F)F (stereo partly drawn) [E 65, 3-(6-(2-(6-(4-((1R,3R)-2-(2,2-difluoroethyl)-3-methyl-2,3,4,9-tetrahydro-1H-pyrido[3,4-b]indol-1-yl)-3,5-difluorophenyl)-2,6-diazaspiro[3.3]heptan-2-yl)acetyl)-1-oxo-3,5,6,7-tetrahydropyrrolo[3,4-f]isoindol-2(1H)-yl)piperidine-2,6-dione] | < 0.01 | –
2 | C[C@@H]1Cc2c([nH]c3ccccc23)[C@@H](c2c(F)cc(N3CCC4(CCN(CC(=O)N5Cc6cc7c(cc6C5)C(=O)N(C5CCC(=O)NC5=O)C7)CC4)C3)cc2F)N1CC(F)F (stereo partly drawn) [E 108, 3-(6-(2-(2-(4-((1R,3R)-2-(2,2-difluoroethyl)-3-methyl-2,3,4,9-tetrahydro-1H-pyrido[3,4-b]indol-1-yl)-3,5-difluorophenyl)-2,8-diazaspiro[4.5]decan-8-yl)acetyl)-1-oxo-3,5,6,7-tetrahydropyrrolo[3,4-f]isoindol-2(1H)-yl)piperidine-2,6-dione] | < 0.01 | –
3 | O=C1CCC(N2C(=O)c3cc4c(cc3C2=O)CN(Cc2ccc(N3CC(Oc5ccc([C@@H]6c7ccc(O)cc7CC[C@@H]6c6ccccc6)cc5)C3)nc2)C4)C(=O)N1 (stereo partly drawn) [E329, 2-(2,6-dioxopiperidin-3-yl)-6-((6-(3-(4-((1R,2S)-6-hydroxy-2-phenyl-1,2,3,4-tetrahydronaphthalen-1-yl)phenoxy)azetidin-1-yl)pyridin-3-yl)methyl)-6,7-dihydropyrrolo[3,4-f]isoindole-1,3(2H,5H)-dione] | 0.01 to 0.1 | –
4 | O=C1CCC(N2C(=O)c3cc4c(cc3C2=O)CN(CC(=O)N2CC3(CCN(c5ccc(C(=C(CCCl)c6ccccc6)c6ccc(O)cc6)cc5)CC3)C2)C4)C(=O)N1 (stereo not shown) [E 187, 6-(2-(7-(4-(4-chloro-1-(4-hydroxyphenyl)-2-phenylbut-1-en-1-yl)phenyl)-2,7-diazaspiro[3.5]nonan-2-yl)-2-oxoethyl)-2-(2,6-dioxopiperidin-3-yl)-6,7-dihydropyrrolo[3,4-f]isoindole-1,3(2H,5H)-dione] | 0.01 to 0.1 | –
5 | C[C@@H]1Cc2c([nH]c3ccccc23)[C@@H](c2c(F)cc(C3CCN(C[C@H]4CC[C@H](N5Cc6cc7c(cc6C5)C(=O)N(C5CCC(=O)NC5=O)C7=O)CC4)CC3)cc2F)N1CC(F)F (stereo partly drawn) [E 366, 6-((1R,4r)-4-((4-(4-((1R,3R)-2-(2,2-difluoroethyl)-3-methyl-2,3,4,9-tetrahydro-1H-pyrido[3,4-b]indol-1-yl)-3,5-difluorophenyl)piperidin-1-yl)methyl)cyclohexyl)-2-(2,6-dioxopiperidin-3-yl)-6,7-dihydropyrrolo[3,4-f]isoindole-1,3(2H,5H)-dione] | > 0.1 | –
6 | O=C1CCC(N2C(=O)c3cc4c(cc3C2=O)CCN(CC(=O)N2CC3(CCN(c5ccc([C@@H]6c7ccc(O)cc7CC[C@@H]6c6ccc(F)cc6)cc5)CC3)C2)CC4)C(=O)N1 (stereo partly drawn) [E 184, 2-(2,6-dioxopiperidin-3-yl)-7-(2-(7-(4-((1R,2S)-2-(4-fluorophenyl)-6-hydroxy-1,2,3,4-tetrahydronaphthalen-1-yl)phenyl)-2,7-diazaspiro[3.5]nonan-2-yl)-2-oxoethyl)-6,7,8,9-tetrahydroazepino[4,5-f]isoindole-1,3(2H,5H)-dione] | > 0.1 | –
7 | C[C@@H]1Cc2cc(O)ccc2[C@H](c2c(F)cc(OC3CC4(CCN(C(=O)CN5Cc6cc7c(cc6C5)C(=O)N(C5CCC(=O)NC5=O)C7=O)CC4)C3)cc2F)N1CC(F)F (stereo partly drawn) [E 456, 6-(2-(2-(4-((1R,3R)-2-(2,2-difluoroethyl)-6-hydroxy-3-methyl-1,2,3,4-tetrahydroisoquinolin-1-yl)-3,5-difluorophenoxy)-7-azaspiro[3.5]nonan-7-yl)-2-oxoethyl)-2-(2,6-dioxopiperidin-3-yl)-6,7-dihydropyrrolo[3,4-f]isoindole-1,3(2H,5H)-dione] | – | > 0.1
8 | C[C@@H]1Cc2c([nH]c3ccccc23)[C@@H](c2c(F)cc(N3CCC(N4CC(CN5Cc6cc7c(cc6C5)C(=O)N(C5CCC(=O)NC5=O)C7=O)C4)CC3)cc2F)N1CC(F)F (stereo partly drawn) [E 117, 6-((1-(1-(4-((1R,3R)-2-(2,2-difluoroethyl)-3-methyl-2,3,4,9-tetrahydro-1H-pyrido[3,4-b]indol-1-yl)-3,5-difluorophenyl)piperidin-4-yl)azetidin-3-yl)methyl)-2-(2,6-dioxopiperidin-3-yl)-6,7-dihydropyrrolo[3,4-f]isoindole-1,3(2H,5H)-dione] | 0.01 to 0.1 | –
9 | O=C1CCC(N2C(=O)c3cc4c(cc3C2=O)CN(C(=O)[C@H]2CC[C@H](N3CC(Nc5ccc([C@H]6c7ccc(O)cc7CC[C@H]6c6ccccc6)cc5)C3)CC2)C4)C(=O)N1 (stereo partly drawn) [E 390, 2-(2,6-dioxopiperidin-3-yl)-6-((1S,4r)-4-(3-((4-((1S,2R)-6-hydroxy-2-phenyl-1,2,3,4-tetrahydronaphthalen-1-yl)phenyl)amino)azetidin-1-yl)cyclohexane-1-carbonyl)-6,7-dihydropyrrolo[3,4-f]isoindole-1,3(2H,5H)-dione] | 0.01 to 0.1 | –
10 | C[C@@H]1Cc2c([nH]c3ccccc23)[C@@H](c2c(F)cc(C3CCN(C[C@H]4CC[C@@H](N5Cc6cc7c(cc6C5)C(=O)N(C5CCC(=O)NC5=O)C7=O)CC4)CC3)cc2F)N1CC(F)F (stereo partly drawn) [E 367, 6-((1S,4s)-4-((4-(4-((1R,3R)-2-(2,2-difluoroethyl)-3-methyl-2,3,4,9-tetrahydro-1H-pyrido[3,4-b]indol-1-yl)-3,5-difluorophenyl)piperidin-1-yl)methyl)cyclohexyl)-2-(2,6-dioxopiperidin-3-yl)-6,7-dihydropyrrolo[3,4-f]isoindole-1,3(2H,5H)-dione] | > 0.1 | –
11 | O=C1CCC(N2C(=O)c3cc4c(cc3C2=O)CN(CC(=O)N2CC3(CCN(c5ccc([C@@H]6c7ccc(O)cc7CC[C@@H]6c6ccc(F)cc6)cc5)CC3)C2)C4)C(=O)N1 (mixture of isomers) [E 19, Rac-2-(2,6-dioxopiperidin-3-yl)-6-(2-(7-(4-((1R,2S)-2-(4-fluorophenyl)-6-hydroxy-1,2,3,4-tetrahydronaphthalen-1-yl)phenyl)-2,7-diazaspiro[3.5]nonan-2-yl)-2-oxoethyl)-6,7-dihydropyrrolo[3,4-f]isoindole-1,3(2H,5H)-dione] | < 0.01 | –
12 | C[C@@H]1Cc2cc(O)ccc2[C@@H](c2c(F)cc(N3CCC4(CC3)CN(C(=O)CN3Cc5cc6c(cc5C3)C(=O)N(C3CCC(=O)NC3=O)C6=O)C4)cc2F)N1CC(F)F (stereo partly drawn) [E 41, 6-(2-(7-(4-((1S,3R)-2-(2,2-difluoroethyl)-6-hydroxy-3-methyl-1,2,3,4-tetrahydroisoquinolin-1-yl)-3,5-difluorophenyl)-2,7-diazaspiro[3.5]nonan-2-yl)-2-oxoethyl)-2-(2,6-dioxopiperidin-3-yl)-6,7-dihydropyrrolo[3,4-f]isoindole-1,3(2H,5H)-dione] | < 0.01 | –
13 | O=C1CCC(N2C(=O)c3cc4c(cc3C2=O)CN(CC(=O)N2CCCC(Oc3ccc([C@@H]5c6ccc(O)cc6CC[C@@H]5c5ccccc5)cc3)C2)C4)C(=O)N1 (mixture of isomers) [E 21, Rac-2-(2,6-dioxopiperidin-3-yl)-6-(2-(3-(4-((1R,2S)-6-hydroxy-2-phenyl-1,2,3,4-tetrahydronaphthalen-1-yl)phenoxy)piperidin-1-yl)-2-oxoethyl)-6,7-dihydropyrrolo[3,4-f]isoindole-1,3(2H,5H)-dione] | > 0.1 | –
14 | O=C1CCC(N2C(=O)c3cc4c(cc3C2=O)CN(C2CN(C(=O)C3CCN(c5ccc([C@@H]6c7ccc(O)cc7CC[C@@H]6c6ccccc6)cc5)CC3)C2)C4)C(=O)N1 (mixture of isomers) [E 15, Rac-2-(2,6-dioxopiperidin-3-yl)-6-(1-(1-(4-((1R,2S)-6-hydroxy-2-phenyl-1,2,3,4-tetrahydronaphthalen-1-yl)phenyl)piperidine-4-carbonyl)azetidin-3-yl)-6,7-dihydropyrrolo[3,4-f]isoindole-1,3(2H,5H)-dione] | 0.01 to 0.1 | –
15 | C[C@@H]1Cc2cc(O)ccc2[C@@H](c2c(F)cc(NC3CC4(CCN(C(=O)CN5Cc6cc7c(cc6C5)C(=O)N(C5CCC(=O)NC5=O)C7=O)CC4)C3)cc2F)N1CC(F)F (stereo partly drawn) [E 451, 6-(2-(2-((4-((1S,3R)-2-(2,2-difluoroethyl)-6-hydroxy-3-methyl-1,2,3,4-tetrahydroisoquinolin-1-yl)-3,5-difluorophenyl)amino)-7-azaspiro[3.5]nonan-7-yl)-2-oxoethyl)-2-(2,6-dioxopiperidin-3-yl)-6,7-dihydropyrrolo[3,4-f]isoindole-1,3(2H,5H)-dione] | – | 0.01 to 0.1
16 | O=C1CCC(N2C(=O)c3cc4c(cc3C2=O)CN(CC(=O)N2CCC3(CC2)CN(c2ccc([C@@H]5c6ccc(O)cc6CC[C@@H]5c5ccccc5)cc2)C3)C4)C(=O)N1 (mixture of isomers) [E 10, Rac-2-(2,6-dioxopiperidin-3-yl)-6-(2-(2-(4-((1R,2S)-6-hydroxy-2-phenyl-1,2,3,4-tetrahydronaphthalen-1-yl)phenyl)-2,7-diazaspiro[3.5]nonan-7-yl)-2-oxoethyl)-6,7-dihydropyrrolo[3,4-f]isoindole-1,3(2H,5H)-dione] | 0.01 to 0.1 | –
